Experimental data reported in US9757356B2 (CHONNAM NATIONAL UNIVERSITY HOSPITAL, priority 2015, dated 2017).

Key:
[1] = test system: cardiac fibroblasts (cFBs); test: BrdU cell proliferation assay, cardiac fibroblasts in cardiomyocyte/cardiac fibroblast co-culture; type: cell-based, rat
Description: (§1) Hearts of two-day-old rats were removed and washed with physiological saline. Thereafter, left cardiac muscles were separated from the hearts in a sterilization cabinet, and microtomed into segments. These myocardial tissues were added to a collagenase enzyme solution, reacted at 37° C. while stirring, and then centrifuged to collect only the supernatant which were then kept in a cell culture flask. After an hour, cardiomyocytes which floated when the supernatant was transferred to a new culture flask were separated from cardiac fibroblasts attached to the bottom of the cell culture flask. At this point, both the cardiomyocytes and the cardiac fibroblasts were cultured in a Dulbecco's modified Eagle's medium (DMEM) supplemented with 10% fetal bovine serum (FBS) and then used for experiments.
(§2) After 2 days and 5 days, the proliferation of cells was quantified.
(§3) To determine the level of new DNA synthesis, a cell proliferation assay was performed by adding bromodeoxyuridine (BrdU) to a cell culture broth in advance to incorporate BrdU into DNAs of cells and performing a chromogenic reaction using an anti-BrdU antibody.
Then, cells which were not stained with cardiac troponin I but stained with DAPI were regarded as cardiac fibroblasts and then counted.

MI animal model [2] = test: Myocardial fibrosis by Masson's trichrom staining in MI animal model; type: in vivo, rat; conditions: MI rats, MI+BIO vs MI+vehicle, FIG. 4
Description: (§4) To induce the onset of myocardial infarction, first of all, rats weighing 200 to 230 g were anesthetized with ketamine (50 mg/kg) and xylazine (5 mg/kg), and the chests of the rats were shaved and disinfected. An anesthesia ventilator was installed to manage the airway of the rat, and the chest was incised to expose the heart. Then, a cardiac muscle was sutured in a region of the left anterior descending artery (LAD) to block a blood flow, thereby establishing an MI animal model.
(§5) After two weeks, the rats were anesthetized, and subjected to echocardiography to examine the cardiac functions.
To quantify myocardial fibrosis, the heart tissues were also removed, fixed with formalin, embedded in a paraffin block, and then microtomed into sections having a thickness of 10 μm. Thereafter, the sections were histologically stained using a Masson's trichrom method.

cardiomyocytes (CMs) = test: BrdU cell proliferation assay, cardiomyocytes in cardiomyocyte/cardiac fibroblast co-culture; type: cell-based, rat; conditions: BIO 2.5 μM and 5 μM, after 2 days and 5 days, FIG. 1
Description: as §1, §2, §3

MI animal model [3] = test: Echocardiography of cardiac function in MI animal model; type: in vivo, rat; conditions: MI rats, 0.2 mg/body weight intra-abdominally daily
Description: as §4, §5
In this case, the indices have the following meanings. • IVSd; thickness of interventricular septum (diastole) • IVSs; thickness of interventricular septum (systole) • LVIDd; thickness of left ventricular internal dimension (diastole) • LVIDs; thickness of left ventricular internal dimension (systole) • LVPWd; left ventricle posterior wall thickness (diastole) • LVPWs; left ventricle posterior wall thickness (systole) • EF; ejection fraction • FS; fractional shortening

MI animal model [4] = test: Macrophage phenotype (CD68/Arg1 immunofluorescence) in cardiac muscle of MI animal model; type: in vivo, rat; conditions: MI rats, 2nd week after onset of myocardial infarction, FIG. 6
Description: Specifically, a slide for myocardial infarction heart tissues was treated with an anti-CD68 antibody and an anti-Arg1 antibody, and a fluorescence image was visualized using a secondary antibody. Then, the tissues were observed under a confocal microscope with a magnification of 800 times. Since the macrophages in the tissues expressed CD68, the macrophages were detected using the anti-CD68 antibody. Also, since a marker used to distinguish the characteristics of the macrophages in the tissues was iNOS in the case of the inflammatory M1 macrophages and arginase 1 (Arg1) in the case of the anti-inflammatory M2 macrophages, the macrophages were stained with an anti-inflammatory marker Arg1 for macrophages in order to determine how many the phenotype of the macrophages in the heart was converted into the M2 type at the 2nd week after the onset of myocardial infarction.

[5] = test system: macrophage cell line RAW264.7; test: iNOS expression in LPS-stimulated macrophages, Western blotting; type: cell-based, mouse; conditions: RAW264.7, LPS 100 ng/mL, BIO 0, 1, 2.5 and 5 μM, FIG. 5
Description: A mouse macrophage cell line RAW264.7 (Korean Cell Line Bank) was cultured in a DMEM broth supplemented with 10% fetal bovine serum, and lipopolysaccharide (LPS) was added at a concentration of 100 ng/mL to the culture broth to initiate inflammation of macrophages.

GSK3β = target: T1, GSK3β (Rattus norvegicus, UniProt P18266); test: p-GSK3β expression in cardiac fibroblasts, Western blotting; type: cell-based; conditions: cardiac fibroblasts, 0, 0.25, 2.5 and 5 μM for 2 days, FIG. 7
T1 construct: endogenous in cells; host or cells: cardiac fibroblasts (primary culture)
Description: Since GSK3β was in an inert state when phosphorylated, an increase in expression level of p-GSK3β was determined using Western blotting in order to evaluate the inhibition of GSK3β.

[6] = echocardiography after two weeks

T1 sequence (P18266 whole entry): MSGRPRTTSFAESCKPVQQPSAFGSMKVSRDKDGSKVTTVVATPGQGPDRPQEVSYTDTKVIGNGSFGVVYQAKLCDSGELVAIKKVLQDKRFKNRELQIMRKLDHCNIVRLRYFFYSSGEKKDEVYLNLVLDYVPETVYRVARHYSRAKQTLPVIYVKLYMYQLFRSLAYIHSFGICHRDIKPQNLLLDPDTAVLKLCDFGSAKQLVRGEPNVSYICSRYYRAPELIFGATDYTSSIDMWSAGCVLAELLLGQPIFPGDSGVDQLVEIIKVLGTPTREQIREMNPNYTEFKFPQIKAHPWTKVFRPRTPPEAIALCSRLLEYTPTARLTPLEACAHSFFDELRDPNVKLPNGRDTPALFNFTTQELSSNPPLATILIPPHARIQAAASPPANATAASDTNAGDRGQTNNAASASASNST

| SMILES | BrdU (+) cFB/total cFB, proliferation rate of dividing cardiac fibroblasts ([1]; co-culture, BIO 2.5 μM and 5 μM, FIG. 2) | fibrosis regions (blue), myocardial fibrosis (MI animal model [2]) | BrdU (+) CM/total CM, proliferation rate of dividing cardiomyocytes (cardiomyocytes (CMs)) | diastolic and systolic functions of the heart (MI animal model [3]; after two weeks, vs MI+saline) | EDV (MI animal model [3]; [6]) | EF; ejection fraction (MI animal model [3]; [6]) | ESV (MI animal model [3]; [6]) | FS; fractional shortening (MI animal model [3]; [6]) | IVSd; thickness of interventricular septum (diastole) (MI animal model [3]; [6]) | IVSs; thickness of interventricular septum (systole) (MI animal model [3]; [6]) | LVIDd; thickness of left ventricular internal dimension (diastole) (MI animal model [3]; [6]) | LVIDs; thickness of left ventricular internal dimension (systole) (MI animal model [3]; [6]) | LVPWd; left ventricle posterior wall thickness (diastole) (MI animal model [3]; [6]) | LVPWs; left ventricle posterior wall thickness (systole) (MI animal model [3]; [6]) | SV (MI animal model [3]; [6]) | Arg1-expressing (anti-inflammatory M2 type) macrophages in the cardiac muscles (MI animal model [4]) | expression of iNOS (inflammatory marker) [5] | inhibitory effect on the proliferation of the cardiac fibroblasts ([1]; BIO 5 μM and 10 μM vs LiCl, same manner as Example 3, FIG. 8) | expression level of p-GSK3β (inert form), GSK3β inhibition (GSK3β) |
| --- | --- | --- | --- | --- | --- | --- | --- | --- | --- | --- | --- | --- | --- | --- | --- | --- | --- | --- | --- |
| O=C1Nc2cc(Br)ccc2/C1=C1/Nc2ccccc2/C1=N\O [BIO, (2′Z,3′E)-6-bromoindirubin-3′-oxime] | significantly decreased | significantly reduced | significantly increased | well preserved | 1.563 ± 0.308 | 41.313 ± 6.823 | 0.911 ± 0.251 | 18.262 ± 3.525 | 0.079 ± 0.013 | 0.084 ± 0.028 | 0.900 ± 0.066 | 0.736 ± 0.074 | 0.089 ± 0.023 | 0.115 ± 0.019 | 0.651 ± 0.116 | prevailed | lowered in a concentration-dependent manner | – | – |
| [Cl-].[Li+] [LiCl, reference compound] | – | – | – | – | – | – | – | – | – | – | – | – | – | – | – | – | – | not observed | increased |
